Results taken from patent US10253052B2, “HBED-bisphosphonates, radiometal conjugates and their use as theranostic agents” (Five Eleven Pharma Inc., priority 2015, dated 2019).
“And” between values parts separate entries of the source, which are not always exact repeats. Equal values may be shown once. Marks after values point to notes of the source that are not given here.

Columns and labels:
[1] = In vitro binding to hydroxyapatite; conditions: 20 mg hydroxyapatite in saline, 10 min at room temperature
Procedure: Hydroxyapatite (20 mg, Sigma-Aldrich, reagent grade powder) was incubated in isotonic saline (1 mL) for 24 h. Subsequently, either ^68Ga labeled 1a-h, 2, 3, BPAMD, or [^18F]NaF (1 μCi) was added to the hydroxyapatite suspension. After vortexing for 10 seconds, the suspension was incubated for 10 min at room temperature. The samples were then centrifuged at 10,000 rpm for 3 min and the supernatant was removed. The hydroxyapatite fraction was washed twice with saline (1 mL). Radioactivity in the combined supernatants and the hydroxyapatite fraction was measured using a gamma counter. The proportion of the ^68Ga complex binding to hydroxyapatite was determined as percent of ^68Ga absorbed to hydroxyapatite.

[2] = In vivo biodistribution in mice; parameters: species or system normal CD-1 male mice; conditions: for bone to blood ratio / bone to muscle ratio / Biodistribution: Blood / Biodistribution: Bone / Biodistribution: Brain / Biodistribution: Heart / Biodistribution: Kidney / Biodistribution: Liver / Biodistribution: Lung / Biodistribution: Muscle / Biodistribution: Pancreas / Biodistribution: Skin / Biodistribution: Spleen: iv
Procedure: Biodistribution experiments were performed by intravenously administering ^68Ga labeled 1a-h, 2, 3, BPAMD, and [^18F]NaF into normal, healthy male CD-1 mice (25-30 g). The injection activity was 20-30 μCi/animal. […] Organs of interest were harvested, weighed, and counts of radioactivity were measured by a gamma counter. The biodistribution of each sample was calculated as a percentage of the injected dose per gram of wet tissue weight (% ID/g). Tibia and femur bones were harvested and counted as bone samples.

O=C([O-])CN1CCN(CC(=O)[O-])CCN(CC(=O)NCCNC(=O)CCc2ccc(O)c(CN(CCN(CC(=O)O)Cc3cc(CCC(=O)NC(P(=O)(O)O)P(=O)(O)O)ccc3O)CC(=O)O)c2)CCN(CC(=O)[O-])CC1.[177Lu+3] [[^177Lu]1h]
Hydroxyapatite Binding (%) [1]: 90.9 ± 1.1% | bone to blood ratio ([2]; 30 min): 24 | bone to muscle ratio ([2]; 30 min): 41 | Biodistribution: Blood ([2]; 30 min (0.5 hr) post injection): 0.54 ± 0.11 % dose/g | Biodistribution: Bone ([2]; 30 min (0.5 hr) post injection): 12.4 ± 1.19 % dose/g | Biodistribution: Brain ([2]; 30 min (0.5 hr) post injection): 0.03 ± 0.01 % dose/g | Biodistribution: Heart ([2]; 30 min (0.5 hr) post injection): 0.23 ± 0.05 % dose/g | Biodistribution: Kidney ([2]; 30 min (0.5 hr) post injection): 1.21 ± 0.94 % dose/g | Biodistribution: Liver ([2]; 30 min (0.5 hr) post injection): 0.20 ± 0.03 % dose/g | Biodistribution: Lung ([2]; 30 min (0.5 hr) post injection): 1.35 ± 1.52 % dose/g | Biodistribution: Muscle ([2]; 30 min (0.5 hr) post injection): 0.39 ± 0.24 % dose/g | Biodistribution: Pancreas ([2]; 30 min (0.5 hr) post injection): 0.15 ± 0.03 % dose/g | Biodistribution: Skin ([2]; 30 min (0.5 hr) post injection): 0.41 ± 0.12 % dose/g | Biodistribution: Spleen ([2]; 30 min (0.5 hr) post injection): 0.15 ± 0.04 % dose/g | bone to blood ratio ([2]; 60 min): 97 | bone to muscle ratio ([2]; 60 min): 200 | Biodistribution: Blood ([2]; 60 min (1 hr) post injection): 0.12 ± 0.02 % dose/g | Biodistribution: Bone ([2]; 60 min (1 hr) post injection): 11.4±0.3 % dose/g and 11.4 ± 0.31 % dose/g | Biodistribution: Brain ([2]; 60 min (1 hr) post injection): 0.01 ± 0.00 % dose/g | Biodistribution: Heart ([2]; 60 min (1 hr) post injection): 0.08 ± 0.02 % dose/g | Biodistribution: Kidney ([2]; 60 min (1 hr) post injection): 1.48 ± 0.60 % dose/g | Biodistribution: Liver ([2]; 60 min (1 hr) post injection): 0.13 ± 0.03 % dose/g | Biodistribution: Lung ([2]; 60 min (1 hr) post injection): 0.20 ± 0.05 % dose/g | Biodistribution: Muscle ([2]; 60 min (1 hr) post injection): 0.06 ± 0.01 % dose/g | Biodistribution: Pancreas ([2]; 60 min (1 hr) post injection): 0.07 ± 0.02 % dose/g | Biodistribution: Skin ([2]; 60 min (1 hr) post injection): 0.11 ± 0.03 % dose/g | Biodistribution: Spleen ([2]; 60 min (1 hr) post injection): 0.07 ± 0.01 % dose/g | Biodistribution: Blood ([2]; 6 hr post injection): 0.016 ± 0.007 % dose/g | Biodistribution: Bone ([2]; 6 hr post injection): 12.7 ± 0.90 % dose/g | Biodistribution: Brain ([2]; 6 hr post injection): 0.003 ± 0.003 % dose/g | Biodistribution: Heart ([2]; 6 hr post injection): 0.024 ± 0.005 % dose/g | Biodistribution: Kidney ([2]; 6 hr post injection): 0.686 ± 0.191 % dose/g | Biodistribution: Liver ([2]; 6 hr post injection): 0.088 ± 0.021 % dose/g | Biodistribution: Lung ([2]; 6 hr post injection): 0.062 ± 0.006 % dose/g | Biodistribution: Muscle ([2]; 6 hr post injection): 0.031 ± 0.011 % dose/g | Biodistribution: Pancreas ([2]; 6 hr post injection): 0.021 ± 0.001 % dose/g | Biodistribution: Skin ([2]; 6 hr post injection): 0.052 ± 0.006 % dose/g | Biodistribution: Spleen ([2]; 6 hr post injection): 0.038 ± 0.005 % dose/g | bone to blood ratio ([2]; 6 hr post-injection): 909^a | bone to muscle ratio ([2]; 6 hr post-injection): 454^a | Biodistribution: Blood ([2]; 24 hr post injection): 0.003 ± 0.001 % dose/g | Biodistribution: Bone ([2]; 24 hr post injection): 11.6 ± 1.14 % dose/g | Biodistribution: Brain ([2]; 24 hr post injection): 0.014 ± 0.016 % dose/g | Biodistribution: Heart ([2]; 24 hr post injection): 0.014 ± 0.003 % dose/g | Biodistribution: Kidney ([2]; 24 hr post injection): 0.411 ± 0.125 % dose/g | Biodistribution: Liver ([2]; 24 hr post injection): 0.068 ± 0.013 % dose/g | Biodistribution: Lung ([2]; 24 hr post injection): 0.040 ± 0.003 % dose/g | Biodistribution: Muscle ([2]; 24 hr post injection): 0.021 ± 0.005 % dose/g | Biodistribution: Pancreas ([2]; 24 hr post injection): 0.013 ± 0.005 % dose/g | Biodistribution: Skin ([2]; 24 hr post injection): 0.042 ± 0.008 % dose/g | Biodistribution: Spleen ([2]; 24 hr post injection): 0.034 ± 0.005 % dose/g | bone to blood ratio ([2]; 24 hr post-injection): 4312^b^ | bone to muscle ratio ([2]; 24 hr post-injection): 572^b | Biodistribution result in words (organ uptake, retention, excretion) ([2]; normal mice after iv injection): excellent bone uptake, retention in bone and fast kidney excretion
